In patent publication US9872873B2, “Process for preparing stable pharmaceutical compositions of compounds susceptible to hydrolysis” (Fresenius Kabi Oncology Limited, priority 2012, dated 2018):

Experiments:
[1] = Stability profile of Decitabine pre-lyophilized bulk solution at 25° C. in water; type: physicochemical
Experimental: The manufacture of a freeze dried product necessitates that the product is usually first manufactured as a solution, filtered to sterilize, aseptically filled, and finally lyophilized to remove the solvents. All of these unit operations require that the product be held in the solution state for a defined period of time, at least for 4 hours. A batch of Decitabine bulk solution was prepared by dissolving the drug (5 mg/mL) and buffer (Potassium dihydrogen phosphate 6.8 mg/mL, sodium hydroxide 1.16 mg/mL) in water and at room temperature.

[2] = Freezing point of bulk solution of Decitabine using various solvents and buffers; type: physicochemical
Excerpt: The advantages of using these non-aqueous solvent systems include: increased drug wetting or solubility, increased sublimation rates, increased pre-dried bulk solution or dried product stability, decreased reconstitution time, and enhancement of sterility assurance of the pre-dried bulk solution. A pre-requisite for such a solvent to be utilized efficiently for depression of freezing point of water would be to have satisfactory drug solubility in solvent system. […] Various solvents were evaluated for intended purpose e.g. Dimethylsulfoxide (1-30%), Ethanol (1-30%), Tertiary-butanol (1-30%), and their combinations were used in the range of 1-30% and thus were evaluated for their effect in decreasing the freezing point of bulk solution as summarized in Table VII. Although Ethanol decreased the freezing point of the drug solution and ensured drug solubility at low temperature, it was not suitable as a solvent for lyophilization as lyophilized cake could not be formed using this solvent system. Dimethyl sulphoxide is not suitable solvent for Lyophilization as it is difficult to remove during lyophilization.

[3] = Solution stability of Decitabine bulk solution in Water:Acetonitrile 80:20% v/v at −5 ± 2° C.; type: physicochemical
[4] = Stability profile of Decitabine pre-lyophilized bulk solution at −1° C. in water; type: physicochemical
[5] = cited from earlier work
[6] = Initial (5 minutes after drug dissolution)

Related Substances: 5-Azacytosine ([1]; 2 h): 0.05%
Related Substances: H-unk (Highest Unknown Impurity) ([1]; 2 h): 12.42%
Related Substances: Six member Decitabine ([1]; 2 h): 0.34%
Related Substances: Total ([1]; 2 h): 25.44%
Related Substances: α-Decitabine ([1]; 2 h): 0.00%
Related Substances: 5-Azacytosine ([1]; 4 h): 0.05%
Related Substances: H-unk (Highest Unknown Impurity) ([1]; 4 h): 14.14%
Related Substances: Six member Decitabine ([1]; 4 h): 0.81%
Related Substances: Total ([1]; 4 h): 31.46%
Related Substances: α-Decitabine ([1]; 4 h): 0.00%
Related Substances: 5-Azacytosine [1, 6]: 0.00%
Related Substances: H-unk (Highest Unknown Impurity) [1, 6]: 10.89%
Related Substances: Six member Decitabine [1, 6]: 0.05%
Related Substances: Total [1, 6]: 12.12%
Related Substances: α-Decitabine [1, 6]: 0.00%
Freezing Point of bulk solution ([2]; 5% DMSO + 10% Ethanol + 20% Tertiary-butanol + buffer): −8 to −10 °C
Freezing Point of bulk solution ([2]; 5% DMSO +10% Ethanol + buffer): −5 °C
Freezing Point of bulk solution ([2]; 5% DMSO + 15% Ethanol + buffer): −6 to −9 °C
Freezing Point of bulk solution ([2]; Acetonitrile 5%): −2 to −3 °C
Freezing Point of bulk solution ([2]; Acetonitrile 10%): −3 to −4 °C
Freezing Point of bulk solution ([2]; Acetonitrile 15%): −4 to −6 °C
Freezing Point of bulk solution ([2]; Acetonitrile 20%): −8 °C
Freezing Point of bulk solution ([2]; DMSO 1%): −0.5 °C
Freezing Point of bulk solution ([2]; DMSO 2%): −0.8 °C
Freezing Point of bulk solution ([2]; DMSO 5%): −1.6 °C
Freezing Point of bulk solution ([2]; DMSO 10%): −3.0 °C
Freezing Point of bulk solution ([2]; DMSO 15%): −5.5 °C
Freezing Point of bulk solution ([2]; DMSO 20%): −13.9 °C
Freezing Point of bulk solution ([2]; DMSO 30%): −16.0 °C
Freezing Point of bulk solution ([2]; Ethanol 1%): −0.5 °C
Freezing Point of bulk solution ([2]; Ethanol 2%): −0.7 °C
Freezing Point of bulk solution ([2]; Ethanol 5%): −2.0 °C
Freezing Point of bulk solution ([2]; Ethanol 10%): −2.5 °C
Freezing Point of bulk solution ([2]; Ethanol 15%): −6.1 °C
Freezing Point of bulk solution ([2]; Ethanol 20%): −13.8 °C
Freezing Point of bulk solution ([2]; Ethanol 30%): −14.3 °C
Freezing Point of bulk solution ([2]; Tertiary-butanol 1%): −0.1 °C
Freezing Point of bulk solution ([2]; Tertiary-butanol 2%): −1.0 °C
Freezing Point of bulk solution ([2]; Tertiary-butanol 5%): −2.5 °C
Freezing Point of bulk solution ([2]; Tertiary-butanol 10%): −4.3 °C
Freezing Point of bulk solution ([2]; Tertiary-butanol 15%): −6.0 °C
Freezing Point of bulk solution ([2]; Tertiary-butanol 20%): −9.3 °C
Freezing Point of bulk solution ([2]; Tertiary-butanol 30%): −12.9 °C
Freezing Point of bulk solution ([2]; n-butanol): Restricted Miscibility
Related Substances: 5-Azacytosine ([3]; 4 hrs): 0.02%
Related Substances: H-unk (Highest Unknown Impurity) ([3]; 4 hrs): 0.03%
Related Substances: SP4 ([3]; 4 hrs): 0.28%
Related Substances: SP6 ([3]; 4 hrs): 0.29%
Related Substances: Total ([3]; 4 hrs): 0.67%
Related Substances: 5-Azacytosine ([3]; Initial): 0.01%
Related Substances: H-unk (Highest Unknown Impurity) ([3]; Initial): 0.03%
Related Substances: SP4 ([3]; Initial): 0.04%
Related Substances: SP6 ([3]; Initial): 0.05%
Related Substances: Total ([3]; Initial): 0.17%
Related Substances: 5-Azacytosine ([4]; 1 hr): 0.03%
Related Substances: H-unk (Highest Unknown Impurity) ([4]; 1 hr): 0.05%
Related Substances: SP1 ([4]; 1 hr): 0.03%
Related Substances: SP2 ([4]; 1 hr): 0.01%
Related Substances: SP3 ([4]; 1 hr): 0.06%
Related Substances: SP4 ([4]; 1 hr): 0.85%
Related Substances: SP6 ([4]; 1 hr): 0.07%
Related Substances: Total ([4]; 1 hr): 1.25%
Related Substances: α-Decitabine ([4]; 1 hr): 0.02%
Related Substances: 5-Azacytosine ([4]; 2 hr): 0.04%
Related Substances: H-unk (Highest Unknown Impurity) ([4]; 2 hr): 0.05%
Related Substances: SP1 ([4]; 2 hr): 0.03%
Related Substances: SP2 ([4]; 2 hr): 0.02%
Related Substances: SP3 ([4]; 2 hr): 0.05%
Related Substances: SP4 ([4]; 2 hr): 1.50%
Related Substances: SP6 ([4]; 2 hr): 0.22%
Related Substances: Total ([4]; 2 hr): 2.06%
Related Substances: α-Decitabine ([4]; 2 hr): 0.02%
Related Substances: 5-Azacytosine ([4]; 3 hr): 0.03%
Related Substances: H-unk (Highest Unknown Impurity) ([4]; 3 hr): 0.05%
Related Substances: SP1 ([4]; 3 hr): 0.03%
Related Substances: SP2 ([4]; 3 hr): 0.02%
Related Substances: SP3 ([4]; 3 hr): 0.05%
Related Substances: SP4 ([4]; 3 hr): 2.13%
Related Substances: SP6 ([4]; 3 hr): 0.21%
Related Substances: Total ([4]; 3 hr): 2.68%
Related Substances: α-Decitabine ([4]; 3 hr): 0.02%
Related Substances: 5-Azacytosine ([4]; 4 hr): 0.03%
Related Substances: H-unk (Highest Unknown Impurity) ([4]; 4 hr): 0.05%
Related Substances: SP1 ([4]; 4 hr): 0.03%
Related Substances: SP2 ([4]; 4 hr): 0.04%
Related Substances: SP3 ([4]; 4 hr): 0.05%
Related Substances: SP4 ([4]; 4 hr): 1.71%
Related Substances: SP6 ([4]; 4 hr): 0.95%
Related Substances: Total ([4]; 4 hr): 3.07%
Related Substances: α-Decitabine ([4]; 4 hr): 0.01%
Related Substances: 5-Azacytosine ([4]; Initial): 0.03%
Related Substances: H-unk (Highest Unknown Impurity) ([4]; Initial): 0.05%
Related Substances: SP1 ([4]; Initial): 0.03%
Related Substances: SP2 ([4]; Initial): 0.01%
Related Substances: SP3 ([4]; Initial): 0.06%
Related Substances: SP4 ([4]; Initial): 0.35%
Related Substances: SP6 ([4]; Initial): 0.04%
Related Substances: Total ([4]; Initial): 0.70%
Compound: Nc1ncn([C@H]2C[C@H](O)[C@@H](CO)O2)c(=O)n1 [Decitabine, 5-aza-2′ deoxycytidine]
Maximum storage time of diluted solution until administration ([5]; prepared with cold (2° C.-8° C.) infusion fluids, stored at 2° C.-8° C.): ≤ 7 h
Time of use after reconstitution without cold infusion fluids ([5]; reconstituted with Sterile Water for Injection): ≤ 15 min
